Assay [1] deals with Staphylococcus aureus ATCC 29213 (MSSA). As to the kind of experiment: minimum inhibitory concentration; extreme values may be limits of the assay. The essentials: (§1)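 The minimum inhibitory concentration was defined as the lowest concentration whose well remained blue rather than becoming pink. It was measured against methicillin-susceptible and methicillin-resistant Staphylococcus aureus by broth microdilution in 96-well plates according to CLSI guidance, with compounds at 0 to 100 µM incubated for 24 h at 37°C before 30 µl of 0.015% resazurin was added for 2–4 h. Each plate included positive controls.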

Assay [2] has as its system Staphylococcus aureus ATCC 700699 (MRSA). The assay is described as above. The essentials: as §1

Converted amounts (≈) assume the structure as drawn.

As for `Nc1cccnc1Nc1ccc(Cl)cc1`, the minimum inhibitory concentration in assay [1] and in assay [2] was above 50 µM each time.
As to `CNC(=O)C1Cc2ccccc2N1C(=O)Cc1ccc(F)cc1` (stereo not drawn), the minimum inhibitory concentration in assay [1] and in assay [2] was above 50 µM throughout.
`CCn1ncc2c(NC3CCOCC3)c(CNC(=O)c3ccnn3C)c(C)nc21`: the minimum inhibitory concentration in assay [1] and in assay [2] was above 50 µM throughout.
As for `Cc1nc(-c2ccccn2)nc(N(C)CCc2ccccc2)c1Cl`, the minimum inhibitory concentration in assay [1] and in assay [2] was 50 µM (≈ 16.9 µg/mL) each time.
Regarding `COc1ccc(-c2nn(C(C)C)c3ncnc(N)c23)cc1OC`, the minimum inhibitory concentration in assay [1] and in assay [2] was above 50 µM each time.
Take `Cc1ccc(NC(=O)CC2COc3ccccc3O2)cc1Cl` (stereo not drawn): the minimum inhibitory concentration in assay [1] and in assay [2] was above 50 µM in each case.
As to `NC(=O)c1cc(-c2ccsc2)ccc1OCCOc1ccccc1`, the minimum inhibitory concentration in assay [1] and in assay [2] was above 50 µM in each case.
Take `CCCNC(=O)N1CCC2(CC1)CC(=O)c1cc(C)ccc1O2`: the minimum inhibitory concentration in assay [1] and in assay [2] was above 50 µM throughout.
`CCC(Sc1nc2ccccc2o1)C(=O)Nc1nccs1` (stereo not drawn): the minimum inhibitory concentration was above 50 µM in assay [1] and 50 µM (≈ 16 µg/mL) in assay [2].
On to `Cc1noc(C)c1C(=O)N1CCCC(c2[nH]c3c(C)cccc3c2-c2ccncc2)C1` (stereo not drawn), for which the minimum inhibitory concentration in assay [1] and in assay [2] was above 50 µM each time.
`COc1ccc(OC)c(NCc2ccc3nc(N)nc(N)c3c2Cl)c1`: the minimum inhibitory concentration in assay [1] and in assay [2] was 50 µM (≈ 18 µg/mL) throughout.
Take `CC(C)C(Oc1cccc2ccccc12)C(=O)O` (stereo not drawn): the minimum inhibitory concentration in assay [1] and in assay [2] was above 50 µM each time.
On to `CCCS(=O)(=O)N1CCC(CO)(Cc2ccccc2C(F)(F)F)CC1`, for which the minimum inhibitory concentration in assay [1] and in assay [2] was above 50 µM throughout.
`NCC(=O)N1CCn2c(nc(-c3ccccc3)c2Nc2ccc3c(c2)OCO3)C1`: the minimum inhibitory concentration in assay [1] and in assay [2] was above 50 µM in each case.
As for `CNCCC(Oc1ccc(C(F)(F)F)cc1)c1ccccc1` (stereo not drawn), the minimum inhibitory concentration in assay [1] and in assay [2] was above 50 µM throughout.
`CO[C@H]1/C=C\O[C@@]2(C)Oc3c(C)c(O)c4c(O)c(/c(=C/NN5CCN(C)CC5)c(O)c4c3C2=O)=N\C(=O)/C(C)=C\C=C/[C@H](C)[C@H](O)[C@@H](C)[C@@H](O)[C@@H](C)[C@H](OC(C)=O)[C@@H]1C`: the values for the minimum inhibitory concentration in assay [1] and in assay [2] were 0.09 µM (≈ 0.0741 µg/mL) and 50 µM (≈ 41.1 µg/mL), respectively.
The matching figures for `O=C1COCc2ccc(Br)cc2N1Cc1ccc(C(F)(F)F)cc1`: above 50 µM and above 50 µM.
As to `Cc1cc(C(=O)Nc2ccc(-c3ccccc3)cc2)no1`, the minimum inhibitory concentration in assay [1] and in assay [2] was above 50 µM in each case.
`COc1cc(C2=NCCN2)cc2cc(-c3ccc(C4=NCCN4)cc3)oc12`: the minimum inhibitory concentration in assay [1] and in assay [2] was above 50 µM each time.
Regarding `Cc1cc(OCC(=O)Nc2ccc(C(C)C)cc2)n(C)c(=O)c1C#N`, the minimum inhibitory concentration in assay [1] and in assay [2] was above 50 µM throughout.
Take `O=C(NC1=NCCS1)c1sc2cc(F)ccc2c1Cl`: the minimum inhibitory concentration in assay [1] and in assay [2] was above 50 µM throughout.
On to `COc1ccc(N(CCc2cccc(C)n2)C(=O)C2CCCCC2)cc1`, for which the minimum inhibitory concentration in assay [1] and in assay [2] was above 50 µM each time.
For the compound `O=C(C1CCN(c2cc(-n3cccc3)ncn2)CC1)N1CCc2ccccc2C1`, the minimum inhibitory concentration in assay [1] and in assay [2] was above 50 µM in each case.
As to `Cc1ccc(S(=O)(=O)n2cc(-c3ccnc(N)c3)c3cc(Br)cnc32)cc1`, the minimum inhibitory concentration in assay [1] and in assay [2] was above 50 µM each time.
On to `NC(=O)c1cc(Br)ccc1OCCOc1ccccc1`, for which the minimum inhibitory concentration in assay [1] and in assay [2] was above 50 µM throughout.
Turning to `CC(C)/N=c1\cc2n(-c3ccc(Cl)cc3)c3ccccc3nc-2cc1Nc1ccc(Cl)cc1`, the minimum inhibitory concentration in assay [1] and in assay [2] was above 50 µM in each case.
`Cc1cc(NCCc2ccccc2)nc(NC(=N)Nc2ccc(Cl)cc2)n1`: the minimum inhibitory concentration in assay [1] and in assay [2] was 25 µM (≈ 9.52 µg/mL) in each case.
In the case of `O=C(Nc1ccnc(-c2cccnc2)n1)c1cc(C(F)(F)F)cc(C(F)(F)F)c1`, the minimum inhibitory concentration in assay [1] and in assay [2] was above 50 µM each time.
Turning to `COCC(C)NC(=O)CSc1ncnc2sc(-c3ccccc3)cc12` (stereo not drawn), the minimum inhibitory concentration in assay [1] and in assay [2] was above 50 µM in each case.
For the compound `COc1ccc(C(=N)N)cc1-c1cn(-c2ccc(C(=N)N)cc2)nn1`, the minimum inhibitory concentration in assay [1] and in assay [2] was above 50 µM throughout.
Take `FC(F)(F)c1cnc(Sc2nnc(-c3ccncc3)o2)c(Cl)c1`: the minimum inhibitory concentration in assay [1] and in assay [2] was above 50 µM throughout.
Turning to `N#CCN(CCCCN1CCN(c2ccc(F)cc2)CC1)C(=O)OCc1ccccc1`, the minimum inhibitory concentration in assay [1] and in assay [2] was above 50 µM in each case.
Turning to `O=C1[C@@H](Oc2ccccc2)[C@@H](c2ccc(Cl)cc2)N1CCn1cnc2c(NCc3ccccc3)ncnc21`, the minimum inhibitory concentration in assay [1] and in assay [2] was above 50 µM each time.
For `COc1ccc(C2=NN(C3CCCCCC3)C(=O)C2(C)C)cc1OCCCCOc1ccc(-c2nn[nH]n2)cc1`, the minimum inhibitory concentration in assay [1] and in assay [2] was 50 µM (≈ 27.3 µg/mL) throughout.
Consider `CN1CCN(c2cc(-c3ccc(F)cc3)nc(-c3ccncc3)n2)CC1`, for which the minimum inhibitory concentration in assay [1] and in assay [2] was above 50 µM in each case.
For the compound `COc1cc(NC(=O)Cc2nn(C)c(=O)c3ccccc23)ccc1Cl`, the minimum inhibitory concentration in assay [1] and in assay [2] was above 50 µM throughout.
Consider `Clc1cccc(CO[C@H]2CCc3ccccc3[C@@H]2n2ccnn2)c1`, for which the minimum inhibitory concentration in assay [1] and in assay [2] was above 50 µM each time.
On to `CS(=O)(=O)Cc1nc2ccccc2oc1=O`, for which the minimum inhibitory concentration in assay [1] and in assay [2] was above 50 µM each time.
As for `Nc1nc2cc(-c3cncc(Oc4ccc(F)cc4)c3)ccc2[nH]1`, the minimum inhibitory concentration in assay [1] and in assay [2] was 50 µM (≈ 16 µg/mL) in each case.
As for `CN(C(=O)c1cc2c(-c3cncnc3)cccc2[nH]1)c1ccccc1`, the minimum inhibitory concentration in assay [1] and in assay [2] was above 50 µM throughout.
Take `OC[C@H]1O[C@@H](n2c3ccc(Cl)cc3c3c(-c4cc5ccccc5o4)ncnc32)C(O)[C@H]1O` (stereo partly drawn): the minimum inhibitory concentration in assay [1] and in assay [2] was above 50 µM in each case.
For the compound `CS(=O)(=O)N1CCC(CCn2nc(Cc3cccc4ccccc34)c3c(N)ncnc32)CC1`, the minimum inhibitory concentration in assay [1] and in assay [2] was above 50 µM each time.
As to `CNC(=O)c1nn(C)c2c1C(C)(C)Cc1cnc(Nc3ccc(N4CCN(C)CC4)cc3)nc1-2`, the minimum inhibitory concentration in assay [1] and in assay [2] was above 50 µM in each case.
With `O=C(CN1CCOCC1)Nc1ccc2ncnc(Nc3ccc(OCc4cccc(F)c4)c(Cl)c3)c2c1`, the minimum inhibitory concentration in assay [1] and in assay [2] was above 50 µM in each case.
Consider `COC(=O)c1c(NC(=O)c2cc3ccccc3oc2=O)sc2c1CCN(Cc1ccccc1)C2`, for which the minimum inhibitory concentration in assay [1] and in assay [2] was above 50 µM throughout.
Regarding `CO/C=C(/C(=O)OC)c1ccccc1Oc1cc(Oc2ccccc2C#N)ncn1`, the minimum inhibitory concentration in assay [1] and in assay [2] was above 50 µM throughout.
Take `Cc1cc(OCC(=O)NCc2ccccc2)c2cc(Br)ccc2n1`: the minimum inhibitory concentration in assay [1] and in assay [2] was above 50 µM in each case.
`O=C(COc1cccc(F)c1)Nc1nc(-c2ccccn2)cs1`: the minimum inhibitory concentration in assay [1] and in assay [2] was above 50 µM throughout.
Turning to `O=C(Cn1ccnc1[N+](=O)[O-])NCc1ccccc1`, the minimum inhibitory concentration in assay [1] and in assay [2] was above 50 µM in each case.
In the case of `O=C(NCCN1CCCC1)c1cc(NCCCCN2CCC(F)(F)CC2)nc2ccc(Cl)cc12`, the minimum inhibitory concentration in assay [1] and in assay [2] was above 50 µM throughout.
In the case of `Cc1[nH]c2ccccc2c1C(c1cccs1)N1CCN(C)CC1` (stereo not drawn), the minimum inhibitory concentration in assay [1] and in assay [2] was 50 µM (≈ 16.3 µg/mL) in each case.
As for `CO[C@@H]1CN(c2ccc(C#CC3(O)CN4CCC3CC4)c(Cc3ccccc3)n2)C[C@H]1O` (stereo partly drawn), the minimum inhibitory concentration in assay [1] and in assay [2] was above 50 µM each time.
`CC1CS(=O)(=O)CCN1/N=C/c1ccc([N+](=O)[O-])o1` (stereo not drawn): the minimum inhibitory concentration in assay [1] and in assay [2] was above 50 µM each time.
Take `Cc1cc(C)c2cc(C(=O)NC3CCCCCCC3)[nH]c2c1`: the minimum inhibitory concentration in assay [1] and in assay [2] was above 50 µM throughout.
For `O=C(Nc1nnc(S)s1)c1cc(Br)ccc1Cl`, the minimum inhibitory concentration in assay [1] and in assay [2] was above 50 µM each time.
As for `CCOC(=O)c1cc(-c2csc(Nc3c(C)cc(C)cc3C)n2)on1`, the minimum inhibitory concentration in assay [1] and in assay [2] was above 50 µM in each case.
For the compound `Nc1c2c(nc3sc4c(c13)CCCC4)CCCC2`, the minimum inhibitory concentration in assay [1] and in assay [2] was above 50 µM each time.
For the compound `Nc1nccc2ccc(-c3ccc4nccn4c3)cc12`, the minimum inhibitory concentration in assay [1] and in assay [2] was above 50 µM in each case.
For `CC(C)(C)OC(=O)N1CCN(c2nccc(-c3ccc(-c4ccc(Cl)cc4)s3)n2)CC1`, the minimum inhibitory concentration in assay [1] and in assay [2] was above 50 µM in each case.

The values above are taken from the supplement of paper PMC6206229.
